Test results taken from paper PMC8286840, “Identifying SARS-CoV-2 antiviral compounds by screening for small molecule inhibitors of Nsp3 papain-like protease” (Biochemical Journal, 2021).
Counter-ions that a name gives are not always drawn. Like-named read-outs stand apart in the source and are kept apart here.

Experiments:
[1] = biological target: T1, SARS-CoV-2 PLpro (nsp3 1564–1878) (Severe acute respiratory syndrome coronavirus 2, UniProt P0DTD1); experiment: biochemical; design: FRET-quenched peptide (Pro3) cleavage by PLpro, 10 min pre-incubation, slope over 20 min, normalised to no-compound control; conditions: read-out: % of control remaining
[2] = biological target: T1, SARS-CoV-2 PLpro (nsp3 1564–1878); experiment: biochemical; design: FRET-quenched peptide (Pro3) cleavage by PLpro, 10 min pre-incubation, slope over 20 min, normalised to no-compound control; conditions: read-out: % of control remaining; remark: listed apart in the source

COc1ccc([C@@H]2CC(=O)c3c(O)cc(O[C@@H]4O[C@H](CO)[C@@H](O)[C@H](O)[C@H]4O[C@@H]4O[C@@H](C)[C@H](O)[C@@H](O)[C@H]4O)cc3O2)cc1O [Neohesperidin]
remaining activity at 1.25 µM ([1]; Well no.=3444, low concentration screen): 98.8%
remaining activity at 3.75 µM ([2]; Well no.=3444, high concentration screen): 98.5%

NC[C@@H]1O[C@H](O[C@H]2[C@@H](O)[C@H](O[C@@H]3[C@@H](O)[C@H](N)C[C@H](N)[C@H]3O[C@H]3O[C@H](CN)[C@@H](O)[C@H](O)[C@H]3N)O[C@@H]2CO)[C@H](N)[C@@H](O)[C@@H]1O [Neomycin]
remaining activity at 1.25 µM ([1]; Well no.=1911, low concentration screen): 94.3%
remaining activity at 1.25 µM ([1]; Well no.=3419, low concentration screen): 87.7%
remaining activity at 3.75 µM ([2]; Well no.=1911, high concentration screen): 94.6%
remaining activity at 3.75 µM ([2]; Well no.=3419, high concentration screen): 90%

CN(C)C(=O)Oc1cccc([N+](C)(C)C)c1 [Neostigmine methyl sulfate]
remaining activity at 1.25 µM ([1]; Well no.=6077, low concentration screen): 102%
remaining activity at 3.75 µM ([2]; Well no.=6077, high concentration screen): 101%

CN(C)C(=O)Oc1cccc([N+](C)(C)C)c1 [Neostigmine]
remaining activity at 1.25 µM ([1]; Well no.=1558, low concentration screen): 106%
remaining activity at 3.75 µM ([2]; Well no.=1558, high concentration screen): 103%

NC(=O)Cc1cccc(C(=O)c2ccccc2)c1N [Nepafenac]
remaining activity at 1.25 µM ([1]; Well no.=4761, low concentration screen): 103%
remaining activity at 3.75 µM ([2]; Well no.=4761, high concentration screen): 104%

NCc1c[nH]c(=S)n1[C@H]1CCc2c(F)cc(F)cc2C1 [Nepicastat hydrochloride]
remaining activity at 1.25 µM ([1]; Well no.=6033, low concentration screen): 100%
remaining activity at 3.75 µM ([2]; Well no.=6033, high concentration screen): 102%

CC(=O)NCCCC[C@H](N)C(=O)O [Nepsilon-Acetyl-L-lysine]
remaining activity at 1.25 µM ([1]; Well no.=6211, low concentration screen): 116%
remaining activity at 3.75 µM ([2]; Well no.=6211, high concentration screen): 106%

CCN[C@@H]1C[C@H](N)[C@@H](O[C@H]2OC(CN)=CC[C@H]2N)[C@H](O)[C@H]1O[C@H]1OC[C@](C)(O)[C@H](NC)[C@H]1O [Netilmicin Sulfate]
remaining activity at 1.25 µM ([1]; Well no.=4696, low concentration screen): 102%
remaining activity at 3.75 µM ([2]; Well no.=4696, high concentration screen): 101%

O=C(O)c1cccnc1 [Niacin]
remaining activity at 1.25 µM ([1]; Well no.=6401, low concentration screen): 102%
remaining activity at 3.75 µM ([2]; Well no.=6401, high concentration screen): 96.9%

O=C(CCNNC(=O)c1ccncc1)NCc1ccccc1 [Nialamide]
remaining activity at 1.25 µM ([1]; Well no.=1091, low concentration screen): 95.4%
remaining activity at 1.25 µM ([1]; Well no.=1837, low concentration screen): 97.6%
remaining activity at 3.75 µM ([2]; Well no.=1091, high concentration screen): 93.8%
remaining activity at 3.75 µM ([2]; Well no.=1837, high concentration screen): 97.3%

COC(=O)C1=C(C)NC(C)=C(C(=O)OCCN(C)Cc2ccccc2)C1c1cccc([N+](=O)[O-])c1 (centres unmarked) [Nicardipine hydrochloride]
remaining activity at 1.25 µM ([1]; Well no.=811, low concentration screen): 103%
remaining activity at 3.75 µM ([2]; Well no.=811, high concentration screen): 103%

COC(=O)C1=C(C)NC(C)=C(C(=O)OCCN(C)Cc2ccccc2)C1c1cccc([N+](=O)[O-])c1 (centres unmarked) [Nicardipine.HCl]
remaining activity at 1.25 µM ([1]; Well no.=1593, low concentration screen): 104%
remaining activity at 3.75 µM ([2]; Well no.=1593, high concentration screen): 104%

CO[C@]12C[C@@H](COC(=O)c3cncc(Br)c3)CN(C)[C@@H]1Cc1cn(C)c3cccc2c13 [Nicergoline]
remaining activity at 1.25 µM ([1]; Well no.=1731, low concentration screen): 99.4%
remaining activity at 1.25 µM ([1]; Well no.=6958, low concentration screen): 102%
remaining activity at 3.75 µM ([2]; Well no.=1731, high concentration screen): 102%
remaining activity at 3.75 µM ([2]; Well no.=6958, high concentration screen): 109%

O=C(Nc1ccc([N+](=O)[O-])cc1Cl)c1cc(Cl)ccc1O [Niclosamide]
remaining activity at 1.25 µM ([1]; Well no.=1093, low concentration screen): 99.3%
remaining activity at 3.75 µM ([2]; Well no.=1093, high concentration screen): 97.3%

O=C(NCCO[N+](=O)[O-])c1cccnc1 [Nicorandil]
remaining activity at 1.25 µM ([1]; Well no.=1812, low concentration screen): 99%
remaining activity at 3.75 µM ([2]; Well no.=1812, high concentration screen): 95.8%

NC(=O)c1cccnc1 [Nicotinamide (Niacinamide)]
remaining activity at 1.25 µM ([1]; Well no.=4884, low concentration screen): 97.9%
remaining activity at 3.75 µM ([2]; Well no.=4884, high concentration screen): 94.8%

NC(=O)c1ccc[n+]([O-])c1 [Nicotinamide N-oxide]
remaining activity at 1.25 µM ([1]; Well no.=6247, low concentration screen): 105%
remaining activity at 1.25 µM ([1]; Well no.=8269, low concentration screen): 106%
remaining activity at 1.25 µM ([1]; Well no.=8347, low concentration screen): 101%
remaining activity at 3.75 µM ([2]; Well no.=6247, high concentration screen): 107%
remaining activity at 3.75 µM ([2]; Well no.=8269, high concentration screen): 102%
remaining activity at 3.75 µM ([2]; Well no.=8347, high concentration screen): 92.3%

NC(=O)c1cccnc1 [Nicotinamide]
remaining activity at 1.25 µM ([1]; Well no.=6305, low concentration screen): 102%
remaining activity at 3.75 µM ([2]; Well no.=6305, high concentration screen): 99.5%

O=C(O)c1cccnc1 [Nicotinic Acid]
remaining activity at 1.25 µM ([1]; Well no.=8286, low concentration screen): 95.6%
remaining activity at 3.75 µM ([2]; Well no.=8286, high concentration screen): 96.4%

O=C(O)CNC(=O)c1cccnc1 [Nicotinuric acid]
remaining activity at 1.25 µM ([1]; Well no.=6537, low concentration screen): 109%
remaining activity at 3.75 µM ([2]; Well no.=6537, high concentration screen): 105%

Cn1c(NCCN(CCO)CCCc2ccc([N+](=O)[O-])cc2)cc(=O)n(C)c1=O [Nifekalant]
remaining activity at 1.25 µM ([1]; Well no.=1975, low concentration screen): 105%
remaining activity at 3.75 µM ([2]; Well no.=1975, high concentration screen): 102%

O=C(O)c1cccnc1Nc1cccc(C(F)(F)F)c1 [Niflumic acid]
remaining activity at 1.25 µM ([1]; Well no.=995, low concentration screen): 99.1%
remaining activity at 1.25 µM ([1]; Well no.=2011, low concentration screen): 102%
remaining activity at 3.75 µM ([2]; Well no.=995, high concentration screen): 103%
remaining activity at 3.75 µM ([2]; Well no.=2011, high concentration screen): 106%

CC1CS(=O)(=O)CCN1/N=C/c1ccc([N+](=O)[O-])o1 (centres unmarked) [Nifurtimox]
remaining activity at 1.25 µM ([1]; Well no.=5382, low concentration screen): 98.3%
remaining activity at 3.75 µM ([2]; Well no.=5382, high concentration screen): 99.2%

COC(=O)C1=C(C)NC(C)=C(C(=O)OCCCN2CCC(c3ccccc3)(c3ccccc3)CC2)[C@H]1c1cccc([N+](=O)[O-])c1 [Niguldipine]
remaining activity at 1.25 µM [1]: 105%
remaining activity at 3.75 µM [2]: 100%

Cc1cn(-c2cc(NC(=O)c3ccc(C)c(Nc4nccc(-c5cccnc5)n4)c3)cc(C(F)(F)F)c2)cn1 [Nilotinib]
remaining activity at 1.25 µM ([1]; Well no.=2793, low concentration screen): 111%
remaining activity at 3.75 µM ([2]; Well no.=2793, high concentration screen): 107%

CC1(C)NC(=O)N(c2ccc([N+](=O)[O-])c(C(F)(F)F)c2)C1=O [Nilutamide]
remaining activity at 1.25 µM ([1]; Well no.=1147, low concentration screen): 100%
remaining activity at 3.75 µM ([2]; Well no.=1147, high concentration screen): 101%

CS(=O)(=O)Nc1ccc([N+](=O)[O-])cc1Oc1ccccc1 [Nimesulide]
remaining activity at 1.25 µM ([1]; Well no.=1043, low concentration screen): 93.4%
remaining activity at 1.25 µM ([1]; Well no.=1574, low concentration screen): 95.5%
remaining activity at 3.75 µM ([2]; Well no.=1043, high concentration screen): 96.1%
remaining activity at 3.75 µM ([2]; Well no.=1574, high concentration screen): 94.3%

COCCOC(=O)C1=C(C)NC(C)=C(C(=O)OC(C)C)C1c1cccc([N+](=O)[O-])c1 (centres unmarked) [Nimodipine]
remaining activity at 1.25 µM ([1]; Well no.=844, low concentration screen): 100%
remaining activity at 1.25 µM ([1]; Well no.=1717, low concentration screen): 104%
remaining activity at 3.75 µM ([2]; Well no.=844, high concentration screen): 97.1%
remaining activity at 3.75 µM ([2]; Well no.=1717, high concentration screen): 101%

Cc1ncc(CNC(=O)N(CCCl)N=O)c(N)n1 [Nimustine (hydrochloride)]
remaining activity at 1.25 µM ([1]; Well no.=6836, low concentration screen): 95.8%
remaining activity at 3.75 µM ([2]; Well no.=6836, high concentration screen): 95.5%

Cc1ncc(CNC(=O)N(CCCl)N=O)c(N)n1 [Nimustine hydrochloride]
remaining activity at 1.25 µM ([1]; Well no.=861, low concentration screen): 96.9%
remaining activity at 3.75 µM ([2]; Well no.=861, high concentration screen): 97.2%

COC(=O)C1=C(C)NC(C)=C(C(=O)OCC(C)C)C1c1ccccc1[N+](=O)[O-] (centres unmarked) [Nisoldipine]
remaining activity at 1.25 µM ([1]; Well no.=1796, low concentration screen): 100%
remaining activity at 3.75 µM ([2]; Well no.=1796, high concentration screen): 100%

CNCCC(Oc1ccccc1OC)c1ccccc1 (centres unmarked) [Nisoxetine hydrochloride]
remaining activity at 1.25 µM ([1]; Well no.=892, low concentration screen): 100%
remaining activity at 3.75 µM ([2]; Well no.=892, high concentration screen): 99.8%
